In ChEMBL document CHEMBL5614424, “Natural Product-Inspired Discovery of Naphthoquinone-Furo-Piperidine Derivatives as Novel STAT3 Inhibitors for the Treatment of Triple-Negative Breast Cancer” (J Med Chem, 2024):
Calls of active or inactive are those of the source. No cut-off for these calls is given here.

What was measured:
MDA-MB-231 [1] = assay: Antiproliferative activity against human MDA-MB-231 cells assessed as cell viability incubated for 48 hrs measured after additional incubation with MTT; type: functional, cell-based; details: MDA-MB-231, 48 h
MDA-MB-468 [2] = assay: Antiproliferative activity against human MDA-MB-468 cells assessed as cell viability incubated for 48 hrs measured after additional incubation with MTT; type: functional, cell-based; details: MDA-MB-468, 48 h
[3] = Antiproliferative activity against human MCF-10A cells assessed as cell viability incubated for 48 hrs measured after additional incubation with MTT; type: toxicity, cell-based
L02 = assay: Antiproliferative activity against human L02 cells assessed as cell viability incubated for 48 hrs measured after additional incubation with MTT; type: functional, cell-based; details: L02, 48 h
[4] = target: Signal transducer and activator of transcription 3 (Homo sapiens) (UniProt P40763); assay: Suppression of STAT3 activation in human MDA-MB-231 cell assessed as decrease in phosphorylated STAT3 (p-STAT3 Tyr705) level at 3 uM measured after 24 hrs by Western blot analysis; type: cell-based
Sequence of Signal transducer and activator of transcription 3 (Homo sapiens) (P40763 whole entry): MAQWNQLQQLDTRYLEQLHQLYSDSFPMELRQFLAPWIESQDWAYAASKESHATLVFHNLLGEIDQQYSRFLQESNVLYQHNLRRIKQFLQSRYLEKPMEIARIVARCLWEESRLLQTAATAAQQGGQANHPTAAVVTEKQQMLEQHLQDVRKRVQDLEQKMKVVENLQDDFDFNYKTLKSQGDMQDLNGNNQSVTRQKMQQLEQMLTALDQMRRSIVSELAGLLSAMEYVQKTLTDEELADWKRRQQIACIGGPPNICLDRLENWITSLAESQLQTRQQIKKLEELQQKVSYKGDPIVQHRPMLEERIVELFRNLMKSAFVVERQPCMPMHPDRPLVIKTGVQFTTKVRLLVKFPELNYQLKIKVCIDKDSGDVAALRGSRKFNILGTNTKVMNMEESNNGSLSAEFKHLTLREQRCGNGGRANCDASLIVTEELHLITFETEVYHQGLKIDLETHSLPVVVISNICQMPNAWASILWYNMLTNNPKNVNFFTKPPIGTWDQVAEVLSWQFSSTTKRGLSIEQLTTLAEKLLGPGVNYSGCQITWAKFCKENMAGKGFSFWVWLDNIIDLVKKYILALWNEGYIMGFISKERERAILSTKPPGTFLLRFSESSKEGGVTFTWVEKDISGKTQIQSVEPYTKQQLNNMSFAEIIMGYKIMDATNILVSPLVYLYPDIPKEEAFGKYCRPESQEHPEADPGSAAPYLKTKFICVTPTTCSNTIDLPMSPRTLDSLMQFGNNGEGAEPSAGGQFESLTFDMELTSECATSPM

[5] = target: Signal transducer and activator of transcription 3 (Homo sapiens) (UniProt P40763); assay: Suppression of STAT3 activation in human MDA-MB-468 cell assessed as decrease in phosphorylated STAT3 (p-STAT3 Tyr705) level at 3 uM measured after 24 hrs by Western blot analysis; type: cell-based
MDA-MB-231 [6] = assay: Decrease in STAT3 level in human MDA-MB-231 cell at 3 uM measured after 24 hrs by Western blot analysis; type: functional, cell-based
MDA-MB-468 [7] = assay: Decrease in STAT3 level in human MDA-MB-468 cell at 3 uM measured after 24 hrs by Western blot analysis; type: functional, cell-based
[8] = Half life in male rat at 10 mg/kg, po measured upto 24 hrs by LC/MS/MS analysis; type: ADME, organism-based; details: in vivo
[9] = Half life in male rat at 10 mg/kg, ip measured upto 24 hrs by LC/MS/MS analysis; type: ADME, organism-based; details: in vivo
[10] = Half life in male rat at 5 mg/kg, iv measured upto 24 hrs by LC/MS/MS analysis; type: ADME, organism-based; details: in vivo
[11] = AUC(0 to t) in male rat at 10 mg/kg, po measured upto 24 hrs by LC/MS/MS analysis; type: ADME, organism-based; details: in vivo
[12] = AUC(0 to t) in male rat at 10 mg/kg, ip measured upto 24 hrs by LC/MS/MS analysis; type: ADME, organism-based; details: in vivo
[13] = AUC(0 to t) in male rat at 5 mg/kg, iv measured upto 24 hrs by LC/MS/MS analysis; type: ADME, organism-based; details: in vivo
[14] = AUC(0 to infinity) in male rat at 10 mg/kg, po measured upto 24 hrs by LC/MS/MS analysis; type: ADME, organism-based; details: in vivo
[15] = AUC(0 to infinity) in male rat at 10 mg/kg, ip measured upto 24 hrs by LC/MS/MS analysis; type: ADME, organism-based; details: in vivo
[16] = AUC(0 to infinity) in male rat at 5 mg/kg, iv measured upto 24 hrs by LC/MS/MS analysis; type: ADME, organism-based; details: in vivo
[17] = Cmax in male rat at 10 mg/kg, po measured upto 24 hrs by LC/MS/MS analysis; type: ADME, organism-based; details: in vivo
[18] = Cmax in male rat at 10 mg/kg, ip measured upto 24 hrs by LC/MS/MS analysis; type: ADME, organism-based; details: in vivo
[19] = Cmax in male rat at 5 mg/kg, iv measured upto 24 hrs by LC/MS/MS analysis; type: ADME, organism-based; details: in vivo
[20] = Tmax in male rat at 10 mg/kg, po measured upto 24 hrs by LC/MS/MS analysis; type: ADME, organism-based; details: in vivo
[21] = Tmax in male rat at 10 mg/kg, ip measured upto 24 hrs by LC/MS/MS analysis; type: ADME, organism-based; details: in vivo
[22] = Tmax in male rat at 5 mg/kg, iv measured upto 24 hrs by LC/MS/MS analysis; type: ADME, organism-based; details: in vivo
[23] = Oral bioavailability in male rat at 10 mg/kg measured upto 24 hrs by LC/MS/MS analysis; type: ADME, organism-based; details: in vivo

Compound	IC50 (MDA-MB-231 [1])	IC50 (MDA-MB-468 [2])	IC50 at 48 h [3]	IC50 (L02)	further results
O=C1C(=O)c2c(oc3c2CCN(C(=O)c2ccc(Cl)cc2)C3)-c2ccccc21	13 µM	10.7 µM			
CNC(=O)[C@H](Cc1ccc(O)cc1)N1CCc2c(oc3c2C(=O)C(=O)c2ccccc2-3)C1	7.26 µM	10.4 µM			
O=C1C(=O)c2c(oc3c2CCN(C(=O)c2ccc(F)cc2)C3)-c2ccccc21	10.9 µM	12 µM			
C[C@H]1COC2=C1C(=O)C(=O)c1c2ccc2c1CCCC2(C)C [CRYPTOTANSHINONE]	> 20 µM	> 20 µM	> 20 µM	> 20 µM	
COC(=O)[C@H](CC(C)C)N1CCc2c(oc3c2C(=O)C(=O)c2ccccc2-3)C1	> 20 µM	> 20 µM			
O=C1C(=O)c2c(oc3c2CCN(C(=O)c2ccc(C(F)(F)F)cc2)C3)-c2ccccc21	14.7 µM	14.7 µM			
COC(=O)[C@H](Cc1ccccc1)N1CCc2c(oc3c2C(=O)C(=O)c2ccccc2-3)C1	8.26 µM	11.4 µM			
O=C1C(=O)c2c(oc3c2CCN(C(=O)c2cccnc2)C3)-c2ccccc21	5.86 µM	5.89 µM	9.35 µM	13.3 µM	
COC(=O)[C@H](Cc1ccc(O)cc1)N1CCc2c(oc3c2C(=O)C(=O)c2ccccc2-3)C1	7.26 µM	14.3 µM			
O=C1C(=O)c2c(oc3c2CCN(C(=O)c2cccc(C(F)(F)F)c2)C3)-c2ccccc21	12.5 µM	> 20 µM			
CNC(=O)[C@H](CC(C)C)N1CCc2c(oc3c2C(=O)C(=O)c2ccccc2-3)C1	7.99 µM	7.36 µM			
O=C1C(=O)c2c(oc3c2CCN([C@H](CO)Cc2ccc(O)cc2)C3)-c2ccccc21	13.6 µM	13 µM			
COc1ccc(C(=O)N2CCc3c(oc4c3C(=O)C(=O)c3ccccc3-4)C2)cc1	17.3 µM	> 20 µM			
O=C1C(=O)c2c(oc3c2CCN([C@H](CO)Cc2ccccc2)C3)-c2ccccc21	9.97 µM	> 10 µM			
COc1ccc(C(=O)N2CCc3c(oc4c3C(=O)C(=O)c3ccccc3-4)C2)cc1OC	4.59 µM	5.82 µM	7.96 µM	7.43 µM	
N#Cc1ccc(C(=O)N2CCc3c(oc4c3C(=O)C(=O)c3ccccc3-4)C2)cc1	14.8 µM	12.6 µM			
CC(=O)c1cc2c(o1)C(=O)C(=O)c1ccccc1-2	1.43 µM	2.51 µM	6.23 µM	7.25 µM	
O=C1C(=O)c2c(oc3c2CCNC3)-c2ccccc21	7.11 µM	9.23 µM			
COC(=O)CC[C@@H](C(=O)OC)N1CCc2c(oc3c2C(=O)C(=O)c2ccccc2-3)C1	12.7 µM	12.2 µM			
CNC(=O)[C@H](Cc1ccccc1)N1CCc2c(oc3c2C(=O)C(=O)c2ccccc2-3)C1	8.12 µM	8.05 µM			
CC(C)C[C@@H](CO)N1CCc2c(oc3c2C(=O)C(=O)c2ccccc2-3)C1.Cl					half-life [8]: 6.5 h; half-life [9]: 17.2 h; half-life [10]: 17.2 h; AUC(0-t) at 24 h [11]: 107 ng·h/mL; AUC(0-t) at 24 h [12]: 571 ng·h/mL; AUC(0-t) at 24 h [13]: 490 ng·h/mL; AUC(0-inf) [14]: 106 ng·h/mL; AUC(0-inf) [15]: 523 ng·h/mL; AUC(0-inf) [16]: 493 ng·h/mL; Cmax [17]: 78.4 ng/mL; Cmax [18]: 272 ng/mL; Cmax [19]: 972 ng/mL; Tmax [20]: 0.4 h; Tmax [21]: 0.1 h; Tmax [22]: 4.8 min; bioavailability [23]: 10.9%
CN(C)c1ccc(C(=O)N2CCc3c(oc4c3C(=O)C(=O)c3ccccc3-4)C2)cc1	> 20 µM	> 20 µM	> 20 µM	> 20 µM	

More lines, main results first:

IC50 (MDA-MB-231 [1])	IC50 (MDA-MB-468 [2])	Compound	IC50 at 48 h [3]	IC50 (L02)	further results
6.89 µM	9.12 µM	COC(=O)CCCN1CCc2c(oc3c2C(=O)C(=O)c2ccccc2-3)C1			
7.45 µM	9.45 µM	CNC(=O)CCCN1CCc2c(oc3c2C(=O)C(=O)c2ccccc2-3)C1			
2.3 µM	2.32 µM	O=C1C(=O)c2c(oc3c2CCN(CCCO)C3)-c2ccccc21	11.1 µM	15.5 µM	inhibition [4]: Active; inhibition [5]: Active; Activity (MDA-MB-231 [6]): Active; Activity (MDA-MB-468 [7]): Active
6.43 µM	5.41 µM	O=C1C(=O)c2c(oc3c2CCN(C(=O)N2CCOCC2)C3)-c2ccccc21	16.8 µM	> 20 µM	
4 µM	2.35 µM	CN(C)C(=O)N1CCc2c(oc3c2C(=O)C(=O)c2ccccc2-3)C1	> 20 µM	> 20 µM	inhibition [4]: Active; inhibition [5]: Active; Activity (MDA-MB-231 [6]): Active; Activity (MDA-MB-468 [7]): Active
12.4 µM	12.9 µM	O=C1C(=O)c2c(oc3c2CCN(C(=O)c2ccco2)C3)-c2ccccc21			
6.51 µM	4.78 µM	CNC(=O)CN1CCc2c(oc3c2C(=O)C(=O)c2ccccc2-3)C1			
1.19 µM	1.57 µM	O=C1C(=O)c2c(oc3c2CCN(CCO)C3)-c2ccccc21	2.89 µM	3.91 µM	inhibition [4]: Active; inhibition [5]: Active; half-life [8]: 4 h; half-life [9]: 3.5 h; half-life [10]: 2.4 h; AUC(0-t) at 24 h [11]: 47.2 ng·h/mL; AUC(0-t) at 24 h [12]: 219 ng·h/mL; AUC(0-t) at 24 h [13]: 611 ng·h/mL; AUC(0-inf) [14]: 50.1 ng·h/mL; AUC(0-inf) [15]: 241 ng·h/mL; AUC(0-inf) [16]: 645 ng·h/mL; Cmax [17]: 34.4 ng/mL; Cmax [18]: 107 ng/mL; Cmax [19]: 237 ng/mL; Tmax [20]: 1.1 h; Tmax [21]: 0.7 h; Tmax [22]: 4.8 min; bioavailability [23]: 3.8%
4.5 µM	3.6 µM	CNC(=O)CCN1CCc2c(oc3c2C(=O)C(=O)c2ccccc2-3)C1	11 µM	12.5 µM	inhibition [4]: Active; inhibition [5]: Active; Activity (MDA-MB-231 [6]): Active; Activity (MDA-MB-468 [7]): Active
6.08 µM	5.84 µM	CN1CCN(C(=O)N2CCc3c(oc4c3C(=O)C(=O)c3ccccc3-4)C2)CC1			
14.2 µM	16.9 µM	Cc1ccc(C(=O)N2CCc3c(oc4c3C(=O)C(=O)c3ccccc3-4)C2)cc1			
6.41 µM	9.48 µM	O=C1C(=O)c2c(oc3c2CCN(CCCCO)C3)-c2ccccc21			
4.57 µM	3.89 µM	CC(=O)N1CCc2c(oc3c2C(=O)C(=O)c2ccccc2-3)C1	17.8 µM	16.6 µM	inhibition [4]: Active; inhibition [5]: Active
2.5 µM	2.42 µM	COC(=O)CN1CCc2c(oc3c2C(=O)C(=O)c2ccccc2-3)C1	4.89 µM	5.46 µM	
5.72 µM	4.13 µM	COC(=O)CCN1CCc2c(oc3c2C(=O)C(=O)c2ccccc2-3)C1	4.55 µM	8.51 µM	
4.14 µM	6.41 µM	CNC(=O)[C@H](C)N1CCc2c(oc3c2C(=O)C(=O)c2ccccc2-3)C1	17.6 µM	> 20 µM	inhibition [4]: Active; inhibition [5]: Active; Activity (MDA-MB-231 [6]): Active; Activity (MDA-MB-468 [7]): Active
3.41 µM	5.42 µM	C[C@@H](CO)N1CCc2c(oc3c2C(=O)C(=O)c2ccccc2-3)C1	7.98 µM	7.87 µM	inhibition [4]: Active; inhibition [5]: Active
3.14 µM	2.36 µM	COC(=O)[C@H](C)N1CCc2c(oc3c2C(=O)C(=O)c2ccccc2-3)C1	18.2 µM		inhibition [4]: inactive; inhibition [5]: inactive
5.71 µM	6.86 µM	O=C1C(=O)c2c(oc3c2CCN(C(=O)c2ccccc2)C3)-c2ccccc21	19.2 µM	> 20 µM	
> 20 µM	12.9 µM	O=C1C(=O)c2c(oc3c2CCN(C(=O)c2cccs2)C3)-c2ccccc21			
